Calls of active or inactive are those of the source. The rule behind the calls is not given here.
Experiments:
Mus musculus [1] = assay: Antiinflammatory activity in formalin-induced nociception ip dosed Swiss CD-1 mouse model assessed as time spent on licking or biting formalin injected right hind paw […] measured during phase 2; assay type: functional; settings: Swiss CD-1, ip
Mus musculus [2] = assay: Antiinflammatory activity in formalin-induced nociception Swiss CD-1 mouse model assessed as time spent on licking or biting formalin injected right hind paw during neurogenic phase at 10 mg/kg, ip measured during phase 1 (reference value: 33 +/- 1.45 sec); assay type: functional
[3] = molecular target: Transient receptor potential cation channel subfamily A member 1 (Homo sapiens) (UniProt O75762); assay: Antagonist activity at human TRPA1 expressed in HEK293 cells assessed as decrease in flufenamic acid-evoked increase in intracellular calcium level at 1 uM measured for 180 secs with 1 sec interval by Fluo4-AM dye-based fluorescence assay relative to control; assay type: cell-based
Mus musculus [4] = assay: Antiinflammatory activity in formalin-induced nociception Swiss CD-1 mouse model assessed as time spent on licking or biting formalin injected right hind paw during neurogenic phase at 2.5 mg/kg, ip measured during phase 1 (reference value: 33 +/- 1.45 sec); assay type: functional
[5] = Plasma concentration in Wistar rat model of LPS-induced inflammation at 50 mg/kg, ip measured at 1.5 hrs post dose by HPLC method; assay type: ADME, organism-based
[6] = Plasma concentration in Wistar rat model of LPS-induced inflammation at 50 mg/kg, ip measured at 1 hr post dose by HPLC method; assay type: ADME, organism-based
[7] = molecular target: High affinity 3',5'-cyclic-AMP phosphodiesterase 7A (Homo sapiens, UniProt Q13946); assay: Inhibition of recombinant human PDE7A using cAMP as substrate after 10 mins by PDE-Glo Phosphodiesterase Assay
[8] = Plasma concentration in Wistar rat model of LPS-induced inflammation at 50 mg/kg, ip measured at 2 hrs post dose by HPLC method; assay type: ADME, organism-based
Rattus norvegicus [9] = assay: Anti-inflammatory activity in Wistar rat assessed as inhibition of carrageenan-induced paw edema at 20 mg/kg, ip measured at 2 hrs post dose relative to control; assay type: functional
Rattus norvegicus [10] = assay: Antiinflammatory activity in Wistar rat assessed as inhibition of LPS-induced TNF-alpha level at 50 mg/kg, ip measured at 1 hr post dose by ELISA relative to control; assay type: functional
Mus musculus [11] = assay: Antiinflammatory activity in formalin-induced nociception Swiss CD-1 mouse model assessed as time spent on licking or biting formalin injected right hind paw during neurogenic phase at 5 mg/kg, ip measured during phase 1 (reference value: 33 +/- 1.45 sec); assay type: functional
Rattus norvegicus [12] = assay: Antiallodynic activity in Wistar rat assessed as reduction in oxaliplatin-induced neuropathic pain in early phase by measuring paw withdrawal latency time at 1 to 10 mg/kg, ip measured after 60 secs by cold plate test; assay type: functional, organism-based
Mus musculus [13] = assay: Potency index, ratio of ED50 for HC-030031 to test compound ED50 for formalin-induced nociception ip dosed Swiss CD-1 mouse model assessed as time spent on licking or biting formalin injected right hind paw […] measured during phase 2; assay type: functional
[14] = molecular target: 3',5'-cyclic-AMP phosphodiesterase 4B (Homo sapiens, UniProt Q07343); assay: Inhibition of recombinant human PDE4B using cAMP as substrate after 10 mins by PDE-Glo Phosphodiesterase Assay
[15] = molecular target: Transient receptor potential cation channel subfamily A member 1 (Homo sapiens) (UniProt O75762); assay: Antagonist activity at human TRPA1 expressed in HEK293 cells assessed as decrease in flufenamic acid-evoked increase in intracellular calcium level at 10 uM measured for 180 secs with 1 sec interval by Fluo4-AM dye-based fluorescence assay relative to control; assay type: cell-based
Rattus norvegicus [16] = assay: Antiinflammatory activity in Wistar rat assessed as inhibition of LPS-induced TNF-alpha level at 50 mg/kg, ip measured at 1.5 hrs post dose by ELISA relative to control; assay type: functional
Rattus norvegicus [17] = assay: Anti-inflammatory activity in Wistar rat assessed as inhibition of carrageenan-induced paw edema at 20 mg/kg, ip measured at 3 hrs post dose relative to control; assay type: functional
Rattus norvegicus [18] = assay: Antiallodynic activity in Wistar rat assessed as reduction in oxaliplatin-induced neuropathic pain in late phase by measuring paw withdrawal latency time at 1 to 10 mg/kg, ip measured after 60 secs by cold plate test; assay type: functional, organism-based
Rattus norvegicus [19] = assay: Anti-inflammatory activity in Wistar rat assessed as inhibition of carrageenan-induced paw edema at 20 mg/kg, ip measured at 1 hr post dose relative to control; assay type: functional
[20] = molecular target: Transient receptor potential cation channel subfamily A member 1 (Homo sapiens) (UniProt O75762); assay: Antagonist activity at human TRPA1 expressed in HEK293 cells assessed as decrease in flufenamic acid-evoked increase in intracellular calcium level at 100 uM measured for 180 secs with 1 sec interval by Fluo4-AM dye-based fluorescence assay relative to control; assay type: cell-based
Mus musculus [21] = assay: Antiinflammatory activity in formalin-induced nociception Swiss CD-1 mouse model assessed as time spent on licking or biting formalin injected right hind paw […] at 5 mg/kg, ip measured during phase 2 (reference value: 83.63 +/- 12.98 sec); assay type: functional
Mus musculus [22] = assay: Antiinflammatory activity in formalin-induced nociception Swiss CD-1 mouse model assessed as time spent on licking or biting formalin injected right hind paw during […] phase at 2.5 mg/kg, ip measured during phase 2 (reference value: 83.63 +/- 12.98 sec); assay type: functional
Rattus norvegicus [23] = assay: Antiallodynic activity in Wistar rat assessed as reduction in oxaliplatin-induced neuropathic pain in early phase by measuring paw withdrawal force at 10 mg/kg, ip measured after 60 mins by Von Frey test; assay type: functional, organism-based
Rattus norvegicus [24] = assay: Antiinflammatory activity in Wistar rat assessed as inhibition of LPS-induced TNF-alpha level at 50 mg/kg, ip measured at 2 hrs post dose by ELISA relative to control; assay type: functional
Rattus norvegicus [25] = assay: Antiallodynic activity in Wistar rat assessed as reduction in oxaliplatin-induced neuropathic pain in early phase by measuring paw withdrawal force at 5 to 10 mg/kg, ip measured after 60 mins by Von Frey test; assay type: functional, organism-based
Rattus norvegicus [26] = assay: Antiallodynic activity in Wistar rat assessed as reduction in oxaliplatin-induced neuropathic pain in late phase by measuring paw withdrawal force at 10 mg/kg, ip measured after 60 mins by Von Frey test; assay type: functional, organism-based
Mus musculus [27] = assay: Antiinflammatory activity in formalin-induced nociception Swiss CD-1 mouse model assessed as time spent on licking or biting formalin injected right hind paw during […] phase at 10 mg/kg, ip measured during phase 2 (reference value: 143.60 sec); assay type: functional
Mus musculus [28] = assay: Antiinflammatory activity in formalin-induced nociception Swiss CD-1 mouse model assessed as time spent on licking or biting formalin injected right hind paw […] at 5 mg/kg, ip measured during phase 2 (reference value: 143.60 sec); assay type: functional
Rattus norvegicus [29] = assay: Antiallodynic activity in Wistar rat assessed as reduction in oxaliplatin-induced neuropathic pain in early phase by measuring paw withdrawal force at 1 mg/kg, ip measured after 60 mins by Von Frey test; assay type: functional, organism-based
Mus musculus [30] = assay: Antiinflammatory activity in formalin-induced nociception Swiss CD-1 mouse model assessed as time spent on licking or biting formalin injected right hind paw during neurogenic phase at 10 mg/kg, ip measured during phase 1 (reference value: 75.50 +/- 6.86 sec); assay type: functional
Rattus norvegicus [31] = assay: Antiinflammatory activity in Wistar rat assessed as inhibition of LPS-induced TNF-alpha level at 50 mg/kg, ip measured at 1 to 2 hrs post dose by ELISA relative to control; assay type: functional
Rattus norvegicus [32] = assay: Antiallodynic activity in Wistar rat assessed as reduction in oxaliplatin-induced neuropathic pain in late phase by measuring paw withdrawal latency time at 1 mg/kg, ip measured after 60 secs by cold plate test; assay type: functional, organism-based
Mus musculus [33] = assay: Antiinflammatory activity in formalin-induced nociception Swiss CD-1 mouse model assessed as time spent on licking or biting formalin injected right hind paw during […] phase at 2.5 mg/kg, ip measured during phase 2 (reference value: 143.60 sec); assay type: functional
Mus musculus [34] = assay: Antiinflammatory activity in formalin-induced nociception Swiss CD-1 mouse model assessed as time spent on licking or biting formalin injected right hind paw during neurogenic phase at 2.5 mg/kg, ip measured during phase 1 (reference value: 75.50 +/- 6.86 sec); assay type: functional
Rattus norvegicus [35] = assay: Antiallodynic activity in Wistar rat assessed as reduction in oxaliplatin-induced neuropathic pain in late phase by measuring paw withdrawal latency time at 5 mg/kg, ip measured after 60 secs by cold plate test; assay type: functional, organism-based
Mus musculus [36] = assay: Antiinflammatory activity in formalin-induced nociception Swiss CD-1 mouse model assessed as time spent on licking or biting formalin injected right hind paw during neurogenic phase at 5 mg/kg, ip measured during phase 1 (reference value: 75.50 +/- 6.86 sec); assay type: functional

Transient receptor potential cation channel subfamily A member 1 (Homo sapiens), sequence (O75762 whole entry): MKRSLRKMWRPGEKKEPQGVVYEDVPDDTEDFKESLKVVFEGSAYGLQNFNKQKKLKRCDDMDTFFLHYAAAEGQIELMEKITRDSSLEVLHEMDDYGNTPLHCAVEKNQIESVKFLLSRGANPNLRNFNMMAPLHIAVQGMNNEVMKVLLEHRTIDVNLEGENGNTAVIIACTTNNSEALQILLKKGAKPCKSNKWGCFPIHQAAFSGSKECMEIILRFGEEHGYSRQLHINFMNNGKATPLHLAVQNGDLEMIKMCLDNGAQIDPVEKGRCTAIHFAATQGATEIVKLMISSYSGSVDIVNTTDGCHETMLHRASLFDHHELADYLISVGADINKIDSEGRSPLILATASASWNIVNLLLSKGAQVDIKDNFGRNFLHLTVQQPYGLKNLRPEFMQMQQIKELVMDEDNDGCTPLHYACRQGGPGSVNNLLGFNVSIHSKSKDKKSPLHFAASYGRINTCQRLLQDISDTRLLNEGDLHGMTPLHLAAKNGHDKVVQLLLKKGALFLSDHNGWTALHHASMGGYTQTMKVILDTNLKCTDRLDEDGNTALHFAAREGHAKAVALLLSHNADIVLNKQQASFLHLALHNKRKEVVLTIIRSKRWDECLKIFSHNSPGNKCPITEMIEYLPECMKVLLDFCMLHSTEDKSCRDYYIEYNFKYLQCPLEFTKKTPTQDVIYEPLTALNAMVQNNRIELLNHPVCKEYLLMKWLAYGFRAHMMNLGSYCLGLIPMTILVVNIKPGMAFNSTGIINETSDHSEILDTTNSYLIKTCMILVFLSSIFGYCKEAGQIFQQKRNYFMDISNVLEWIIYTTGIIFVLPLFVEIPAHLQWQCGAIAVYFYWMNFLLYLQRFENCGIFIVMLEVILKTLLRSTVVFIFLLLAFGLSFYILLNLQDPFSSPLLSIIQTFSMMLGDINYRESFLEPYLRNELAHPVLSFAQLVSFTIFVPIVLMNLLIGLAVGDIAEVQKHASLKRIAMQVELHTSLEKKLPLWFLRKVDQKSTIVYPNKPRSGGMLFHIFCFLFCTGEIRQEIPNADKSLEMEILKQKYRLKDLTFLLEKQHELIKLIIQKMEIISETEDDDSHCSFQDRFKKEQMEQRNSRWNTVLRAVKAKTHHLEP
3',5'-cyclic-AMP phosphodiesterase 4B, sequence (Q07343 whole entry): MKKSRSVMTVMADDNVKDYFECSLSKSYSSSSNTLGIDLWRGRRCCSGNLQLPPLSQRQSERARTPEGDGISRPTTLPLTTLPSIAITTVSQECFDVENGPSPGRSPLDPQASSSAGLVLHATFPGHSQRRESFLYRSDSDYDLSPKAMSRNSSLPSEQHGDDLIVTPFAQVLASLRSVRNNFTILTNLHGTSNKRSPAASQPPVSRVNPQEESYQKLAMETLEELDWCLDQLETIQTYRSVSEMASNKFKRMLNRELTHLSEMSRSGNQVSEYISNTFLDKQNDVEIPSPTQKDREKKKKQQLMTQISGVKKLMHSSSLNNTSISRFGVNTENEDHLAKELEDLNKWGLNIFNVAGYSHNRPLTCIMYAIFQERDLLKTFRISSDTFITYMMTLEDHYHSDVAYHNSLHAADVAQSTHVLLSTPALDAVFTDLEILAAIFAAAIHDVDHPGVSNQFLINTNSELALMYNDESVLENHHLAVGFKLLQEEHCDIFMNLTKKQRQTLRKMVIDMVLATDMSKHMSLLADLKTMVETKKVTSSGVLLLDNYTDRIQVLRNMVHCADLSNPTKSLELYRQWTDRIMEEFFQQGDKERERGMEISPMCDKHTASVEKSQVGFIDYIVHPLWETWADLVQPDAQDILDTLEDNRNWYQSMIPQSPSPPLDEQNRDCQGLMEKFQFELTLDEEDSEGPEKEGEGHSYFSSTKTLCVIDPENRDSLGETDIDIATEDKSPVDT
High affinity 3',5'-cyclic-AMP phosphodiesterase 7A, sequence (Q13946 whole entry): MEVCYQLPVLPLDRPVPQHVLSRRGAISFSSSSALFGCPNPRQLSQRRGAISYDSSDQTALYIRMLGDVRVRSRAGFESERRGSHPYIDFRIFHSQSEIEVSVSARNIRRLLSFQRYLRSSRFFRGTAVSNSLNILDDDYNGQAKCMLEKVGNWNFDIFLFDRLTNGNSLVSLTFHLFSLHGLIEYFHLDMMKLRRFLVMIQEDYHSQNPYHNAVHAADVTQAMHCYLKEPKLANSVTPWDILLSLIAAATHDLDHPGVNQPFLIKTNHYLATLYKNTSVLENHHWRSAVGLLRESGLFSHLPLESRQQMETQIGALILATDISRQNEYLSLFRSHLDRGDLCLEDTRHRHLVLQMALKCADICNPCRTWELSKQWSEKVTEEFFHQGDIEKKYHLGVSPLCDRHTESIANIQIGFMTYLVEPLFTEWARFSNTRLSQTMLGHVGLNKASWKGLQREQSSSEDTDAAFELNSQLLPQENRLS

Row | inhibition [3] | concentration at 1.5 h [5] | concentration at 1 h [6] | IC50 [7] | concentration at 2 h [8] | IC50 [14] | inhibition [15] | inhibition [20] | Structure (SMILES) | ED50 (Mus musculus [1]) | inhibition in vivo at 20 mg/kg (Rattus norvegicus [9]) | Ratio ED50 (Mus musculus [13]) | inhibition in vivo at 20 mg/kg (Rattus norvegicus [17]) | inhibition in vivo at 20 mg/kg (Rattus norvegicus [19]) | also measured
1 | 6% | 740 nM | 1980 nM | 5.07 µM | 290 nM | 5.43 µM | 7% | 39% | CCCCOc1nc2c(c(=O)n(C)c(=O)n2C)n1CCCC(=O)Nc1cc(C(C)(C)C)ccc1O | 3.44 mg/kg | 79.7% | 10 - 13 | 33.5% | 48% | Time (Mus musculus [2]): 21.33 s; Time (Mus musculus [4]): 32 s; inhibition in vivo at 50 mg/kg (Rattus norvegicus [10]): 85.4%; Time (Mus musculus [11]): 25.17 s; Activity (Rattus norvegicus [12]): Active; inhibition in vivo at 50 mg/kg (Rattus norvegicus [16]): 90.2%; Activity (Rattus norvegicus [18]): Active; Time (Mus musculus [21]): 49.17 s; Time (Mus musculus [22]): 47.67 s; Activity (Rattus norvegicus [23]): Active; inhibition in vivo at 50 mg/kg (Rattus norvegicus [24]): 92%
2 | 40% | 2330 nM | 2680 nM | > 200 µM | 1950 nM | > 200 µM | 40% | 53% | COc1nc2c(c(=O)n(C)c(=O)n2C)n1CC(=O)Nc1ccc(C(C)(C)C)cc1 | 2.49 mg/kg | 18.7% | 10 - 13 | 30.6% | 37.1% | Activity (Rattus norvegicus [25]): Active; Activity (Rattus norvegicus [26]): Active; Time (Mus musculus [27]): 31.67 s; Time (Mus musculus [28]): 48 s; Activity (Rattus norvegicus [29]): inactive; Time (Mus musculus [30]): 65.17 s; inhibition in vivo at 50 mg/kg (Rattus norvegicus [31]): 33 to 44%; Activity (Rattus norvegicus [32]): Active; Time (Mus musculus [33]): 72.6 s; Time (Mus musculus [34]): 69 s; Activity (Rattus norvegicus [35]): Active; Time (Mus musculus [36]): 86.33 s
